“Also recorded” adds a separate entry of the source.
Assays:
human NET = human NET (Homo sapiens (Human), UniProt P23975); test: Novascreen Norepinephrine, Transporter NET (h) binding, recombinant CHO cells, [3H]-Nisoxetine
Text: (§1) The NET and SERT binding may be assayed to determine if the compounds of the disclosure specifically bind to NET or SERT. An exemplary procedure for assaying NET binding may be found in Raisman et al., Eur. Jrnl. Pharmacol. (1982) 78:345-351 and in Langer et al., Eur. Jrnl. Pharmac. (1981) 72:423. An exemplary procedure for assaying SERT binding may be found in D'Amato et al., Jrnl. Pharmcacol. & Exp. Ther. (1987) 242:364-371 and in Brown et al., Eur. Jrnl. Pharmac. (1986) 123:161-165. The contents of each of these references are incorporated by reference in their entirety.
(§2) The binding affinity of the compounds of the current disclosure is measured using a Novascreen against rodent NET, human NET and human SERT. Duloxetine is used as a positive control. Details of the Novascreen may be found in the following: • http://www.perkinelmer.com/Catalog/Product/ID/100-0123, • http://www.perkinelmer.com/Catalog/Product/ID/100-0048, • http://www.perkinelmer.com/Catalog/Product/ID/100-0146, and • http://www.perkinelmer.com/Catalog/Product/ID/100-0099.
For the binding affinity of the compounds of the current disclosure against NET, the following paramenters are used: • Assay Type: Binding • Species: Rat • Origin: Forebrain • Ligand: [3H]-Nisoxetine • Ligand [M]: 1.00E-09 • Kd (Binding Affinity): 9.00E-10 • Bmax: 10.5 fmol/mg tissue (wet weight) • Method: Radioactivity • Measurement: DPM • Assay Name: Norepinephrine, Transporter NET (h) • Assay Type: Binding • Species: Human • Origin: Recombinant/CHO cells • Ligand: [3H]-Nisoxetine • Ligand [M]: 1.00E-09 • Kd (Binding Affinity): 3.00E-09 • Bmax: 10 pmol/mg protein • Method: Radioactivity • Measurement: DPM

human SERT = human SERT (Homo sapiens (Human), UniProt P31645); test: Novascreen Serotonin, Transporter SERT (h) binding, platelets, [3H]Citalopram, N-Methyl
Text: as §1, §2
For the binding affinity of the compounds of the current disclosure for SERT, the following paramenters are used: • Assay Name: Serotonin, Transporter SERT (h) • Assay Type: Binding • Species: Human • Origin: Platelets • Ligand: [3H]Citalopram, N-Methyl • Ligand [M]: 7.00E-10 • Kd (Binding Affinity): 2.50E-09 • Bmax: 425 fmol/mg protein • Method: Radioactivity • Measurement: DPM

naloxone-induced flush = test: Morphine-dependent rat model of hot flashes (naloxone-induced flush, tail skin temperature); assay type: in vivo; settings: 30 mg/kg p.o., FIG. 1
Text: Morphine-dependent Rat Model: The effectiveness of the compounds of the present disclosure to reduce hot flashes may be evaluated by measuring its ability to reduce morphine-induced rise in TST. Ovariectomized rats may be subcutaneously injected with a vehicle (sterile water) once daily for 8 days. On day-4, two tablets of slow-release morphine may be implanted subcutaneously in the dorsal scapular region of the rats to induce morphine dependence. On day-5 and -6, morphine withdrawal may be induced by subcutaneous administration of 1.0 mg/Kg of naloxone, a general opioid antagonist. […] Ketamine (40 mg/Kg) may be injected after test compound to induce sedation so as to avoid temperature fluctuation due to stress associated with restriction of their movement and attachment of thermistor probe to the their tails. All drug- related effects may be compared to a vehicle control group which also receives ketamine. TST may be monitored continuously for 35 minutes. The average TST measured 25, 30 and 35 minutes prior to naloxone injection may be used to establish a baseline temperature. Hot flash reduction may be determined by evaluating the statistical differences between the baseline temperature and 15 minutes after naloxone treatment when the change in TST may be observed to be maximum.

Sequence of human SERT (P31645 whole entry): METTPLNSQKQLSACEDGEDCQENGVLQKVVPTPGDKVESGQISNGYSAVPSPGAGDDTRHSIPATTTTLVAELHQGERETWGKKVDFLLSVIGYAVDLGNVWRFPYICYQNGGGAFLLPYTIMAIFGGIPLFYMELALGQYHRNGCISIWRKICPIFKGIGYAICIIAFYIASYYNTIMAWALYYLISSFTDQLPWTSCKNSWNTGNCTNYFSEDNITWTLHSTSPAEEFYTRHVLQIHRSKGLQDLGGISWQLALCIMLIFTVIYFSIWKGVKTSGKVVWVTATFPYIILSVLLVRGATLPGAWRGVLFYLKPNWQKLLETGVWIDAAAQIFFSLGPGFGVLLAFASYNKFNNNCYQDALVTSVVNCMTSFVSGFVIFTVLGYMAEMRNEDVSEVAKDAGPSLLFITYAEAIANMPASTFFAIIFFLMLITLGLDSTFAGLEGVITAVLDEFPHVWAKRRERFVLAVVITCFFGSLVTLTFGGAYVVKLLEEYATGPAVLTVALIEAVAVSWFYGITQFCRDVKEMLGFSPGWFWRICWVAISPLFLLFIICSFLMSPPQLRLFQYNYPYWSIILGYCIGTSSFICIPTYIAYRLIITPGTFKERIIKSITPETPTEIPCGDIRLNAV
Sequence of human NET (P23975 whole entry): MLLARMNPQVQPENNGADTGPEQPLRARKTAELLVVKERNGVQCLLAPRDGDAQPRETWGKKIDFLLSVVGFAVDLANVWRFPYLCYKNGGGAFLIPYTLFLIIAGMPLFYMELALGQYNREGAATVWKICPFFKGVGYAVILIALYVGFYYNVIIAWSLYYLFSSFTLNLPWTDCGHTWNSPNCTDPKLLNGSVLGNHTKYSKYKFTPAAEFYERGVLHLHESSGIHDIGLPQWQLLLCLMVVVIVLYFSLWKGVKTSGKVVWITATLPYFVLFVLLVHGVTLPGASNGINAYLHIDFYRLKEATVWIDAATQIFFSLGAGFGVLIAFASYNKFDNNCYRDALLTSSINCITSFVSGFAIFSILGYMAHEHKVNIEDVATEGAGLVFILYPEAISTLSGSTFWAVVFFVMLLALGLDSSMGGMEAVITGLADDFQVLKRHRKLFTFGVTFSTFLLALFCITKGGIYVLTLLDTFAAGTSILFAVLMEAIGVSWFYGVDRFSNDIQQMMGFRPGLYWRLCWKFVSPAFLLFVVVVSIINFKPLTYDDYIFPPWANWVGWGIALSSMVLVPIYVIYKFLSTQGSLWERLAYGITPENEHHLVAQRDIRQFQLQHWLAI

| Ki (human NET) | Ki (human SERT) | Compound | reduction of naloxone-induced flush (naloxone-induced flush) |
| --- | --- | --- | --- |
| 4.2 nM | 318 nM | CCOc1ncccc1O[C@H](CCNC)c1ccccc1 [Example 3, (R)-3-(2-Ethoxypyridin-3-yloxy)-N-methyl-3-phenylpropan-1-amine] | effective in reducing naloxone-induced flush; also recorded: effective in reducing naloxone-inducted flush |
| 39 nM |  | CNCC[C@@H](Oc1cccnc1OCCO)c1ccccc1 [Example 1, (R)-2-(3-(3-(Methylamino)-1-phenylpropoxy)pyridin-2-yloxy)ethanol] |  |

Second part, the compound before the results:

| Compound | Ki (human NET) | Ki (human SERT) | reduction of naloxone-induced flush (naloxone-induced flush) |
| --- | --- | --- | --- |
| CCNCC[C@@H](Oc1cccnc1OCC)c1ccccc1 [Compound 5, (R)-3-(2-ethoxypyridin-3-yloxy)-N-ethyl-3-phenylpropan-1-amine] | 37.3 nM | 579 nM |  |
| CCOc1ncccc1O[C@H](CCN)c1ccccc1 [Example 2, (R)-3-Phenyl-3-(2-ethoxypyridin-3-yloxy)propan-1-amine] | 69 nM |  |  |
| CCNCC[C@@H](Oc1cccnc1OC)c1ccccc1 [Compound 4, (R)-N-ethyl-3-(2-methoxypyridin-3-yloxy)-3-phenylpropan-1-amine] | 81.4 nM | 240 nM |  |
